Experiments:
[1] = tested on: FXR target genes SHP, MRP-2, BSEP and PLTP in HEPG2-FXR cells; experiment: Northern blot of FXR target genes in HEPG2-FXR cells; type: cell-based, human; settings: for induction of FXR target genes: SHP, MRP-2, BSEP, PLTP; for concentration of maximal activation of FXR target genes: overnight treatment
Experimental: 20 μg total RNA was isolated using Trizol (Invitrogen) and used for Northern blot analysis. cDNA probes for human PLTP, SHP, MRP-2 and BSEP were prepared and hybridized to the blot. Blots were normalized by 36B4 expression as shown.
(§1) HepG2 or HT29-derived cell lines were typically cultured in medium containing superstripped FBS for 24 hr before the addition of a ligand or DMSO (vehicle) for an additional 24-48 hr. Total RNA was isolated using TRIzol reagent and was resolved (10 μg/lane) on a 1% agarose, 2.2 M formaldehyde gel, transferred to a nylon membrane (Hybond N^+; Amersham Biosciences, Inc.), and cross-linked to the membrane with UV light.
(§2) cDNA probes were radiolabeled with [α-^32P]dCTP using the highprime labeling kit (Amersham Biosciences, Inc.). Membranes were hybridized using the QuikHyb hybridization solution (Stratagene, La Jolla, Calif.) according to the manufacturer's protocol. Blots were normalized for variations of RNA loading by hybridization to a control probe, either, 18 S ribosomal cDNA, or the ribosomal protein 36B4. The RNA levels were quantitated using a PhosphorImager (ImageQuant software; Molecular Dynamics, Inc., Sunnyvale, Calif.) in addition to being exposed to X-ray film.
Total RNA was isolated and the expression of the FXR target genes SHP, MRP-2, BSEP and PLTP was measured by Northern blot analysis (see FIG. 4E).
Differences in efficacy of target gene induction between the liver and the intestinal cell systems may reflect the ability of the liver hepatocytes to mount a xenobotic response or cell specific permeability to the identified compounds. Modification of the ligands to overcome these effects may be made in order to increase the efficacy of these drugs in liver cell systems.

[2] = tested on: IBABP mRNA in HT29-FXRFL cells; experiment: Northern blot of IBABP mRNA induction in HT29 stable cell lines; type: cell-based, human; settings: for induction of IBABP mRNA in control lines: HT29-BABE or HT29-FXR-AF2 cell lines; for concentration of maximal activation of the IBABP gene / induction of IBABP mRNA: HT29-FXRFL, overnight treatment
Experimental: 20 μg total RNA was isolated using Trizol (Invitrogen) and used for Northern blot analysis. cDNA probe for human IBABP was prepared and hybridized to the blot. Blots were normalized by β-actin expression.
as §1, §2
Human colon cells HT29 (FXR null until differentiated) were infected with retroviral vectors that expressed either FXR constructs and the puromycin-resistant gene or the puromycin-resistant gene alone. Puromycin resistant cells were isolated and pooled cell populations were propagated that harbored either the vector alone (HT29-BABE), overexpressed FXR full length (HT29-FXRFL), a non-functional FXR truncated at the AF2 region (HT29-FXR-AF2), or a constitutively active FXR that has the VP16 activation domain fused N-terminal of the protein (HT29-VP16-FXR). Confirmation of the successful establishment of the different stable cell lines was established via northern blot analysis of FXR message levels in the cells (see FIG. 4A). […]
The ability of the novel compounds identified herein to induce IBABP gene expression in this cell system was also examined. Total RNA from HT29 stable cells treated overnight with fexaramine, fexarine and fexarene was probed for IBABP gene expression (see FIG. 4D).

[3] = target: T1, hPXR (Homo sapiens, UniProt O75469); experiment: GAL4 chimeric NHR cross-reactivity assay; type: cell-based; settings: 10 μM
T1 construct: expressed in transfected cells; host or cells: CV-1 (monkey)
T1 sequence (O75469 146-433 limits assumed): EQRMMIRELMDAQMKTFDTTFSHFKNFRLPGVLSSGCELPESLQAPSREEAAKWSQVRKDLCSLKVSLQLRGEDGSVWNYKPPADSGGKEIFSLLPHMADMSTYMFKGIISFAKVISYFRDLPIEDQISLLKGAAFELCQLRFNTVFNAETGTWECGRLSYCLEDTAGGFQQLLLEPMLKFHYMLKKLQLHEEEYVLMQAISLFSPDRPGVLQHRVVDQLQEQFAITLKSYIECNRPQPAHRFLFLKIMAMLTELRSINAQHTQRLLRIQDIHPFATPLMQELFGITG
Experimental: FIGS. 3A-3E collectively show the results of ligand activation of CV-1 cells co-transfected with a luciferase reporter gene with a variety of receptor expression constructs. […] FIGS. 3C-3E show the results of CV-1 cells transiently transfected with the indicated reporter constructs, treated with either DMSO or 10 μM of the compounds fexaramine (3C), fexarine (3D), fexarene (3E). Reporter activity was normalized to the internal control and the data plotted as fold activation relative to untreated cells. All transfections contained CMX-βgal as an internal control.
The expression plasmids pCMX, pCMX-LacZ, pCMX-mFXRFL, pCMX-hRXRFL, pCMX-GALDBD-rFXRLBD and other pCUX-GALDBD-NR LBDs (hRXRα, hPPARαγδ, mPXR, hPXR, hLXRα, HTRβ, hRARβ, mCAR, mERR3 and hVDR) have been described elsewhere (Blumberg et al. (1998). SXR, a novel steroid and xenobiotic-sensing nuclear receptor. Genes Dev. 12(20), 3195-205). The reporter plasmids pMH2004-TK-luc, pTKECRE*6-luc, pTKER-8*2-luc and pMRP-2-luc also have been described elsewhere. The hPLTP-luc promoter was kindly provided by Dr Dennis Dowhan and the hIBABP-luc promoter was created from a plasmid provided by Dr Philippe Besnard.
Cell-based transcriptional activation assays using chimeric nuclear hormone receptor (NHR) constructs were established to measure the selectivity of the compounds to FXR relative to other NHRs (Forman et al. (1995). Identification of a nuclear receptor that is activated by farnesol metabolites. Cell 81, 687-693). These assays used fusion proteins with the yeast GAL4 DNA binding domain connected to the ligand-binding domain (LBD) of NHRs. These constructs were co-transfected with a thymidine kinase C minimal promoter reporter vector containing four copies of the GAL4 binding site. Titration experiments were then performed using the identified compounds. […] Addition of RXR had no effect on the activation potential of fexaramine, fexarine, fexarene in this assay.
No activity was observed on other chimeric NHR constructs including hRXRα, hPPARαγδ, mPXR, hPXR, hLXRα, hTRβ, hRARβ, mCAR, mERR3 and hVDR (see FIGS. 3C-3E).

## COC(=O)/C=C/c1cccc(N(Cc2ccc(-c3ccc(N(C)C)cc3)cc2)C(=O)C2CCCCC2)c1 [fexaramine]
[1]
  induction of FXR target genes: most effective inducer
  concentration of maximal activation of FXR target genes: 10 µM
[2]
  induction of IBABP mRNA in control lines: No induction
  concentration of maximal activation of the IBABP gene: 1 µM
  induction of IBABP mRNA: induced expression of the IBABP mRNA

## COC(=O)/C=C/c1cccc(N(Cc2ccc(/C=C/c3ccccc3)cc2)C(=O)C2CCCCC2)c1 [fexarene]
[1]
  induction of FXR target genes: strong induction
  concentration of maximal activation of FXR target genes: 10 µM
[2]
  induction of IBABP mRNA in control lines: No induction
  concentration of maximal activation of the IBABP gene: 1 µM
  induction of IBABP mRNA: induced expression of the IBABP mRNA
[3]
  activity on chimeric hPXR construct: No activity

## COC(=O)/C=C/c1cccc(N(Cc2ccc(-c3ccc4c(c3)OCO4)cc2)C(=O)C2CCCCC2)c1 [fexarine]
[1]
  induction of FXR target genes: strong induction
  concentration of maximal activation of FXR target genes: 10 µM
[2]
  induction of IBABP mRNA in control lines: No induction
  concentration of maximal activation of the IBABP gene: 1 µM
  induction of IBABP mRNA: induced expression of the IBABP mRNA
[3]
  activity on chimeric hPXR construct: No activity

## CC(C)c1onc(-c2c(Cl)cccc2Cl)c1COc1ccc(/C=C/c2cccc(C(=O)O)c2)c(Cl)c1 [GW4064, reference compound]
[2]
  induction of IBABP mRNA in control lines: No induction
  concentration of maximal activation of the IBABP gene: 1 µM
  induction of IBABP mRNA: robust concentration dependent induction

Reference: US7647217B2, “Structure of the farnesoid X receptor ligand binding domain and methods of use therefor” (The Salk Institute for Biological Studies, priority 2002, dated 2010)
